Values quoted from earlier work, collected in US20030111427A1, “Composition for controlling the dissolving rate of solid sanitizers” (Arch Chemicals, Inc., priority 2001, published 2003).

Settings: at 30° C.

SMILES: [Ca+2].[O-]Cl.[O-]Cl [calcium hypochlorite]
- time for all of the calcium hypochlorite to dissolve (21.6 grams in 100 grams of water): less than 5 minutes
- amount that dissolves in 100 grams of water (in 100 grams of water): about 21.6 grams
